In brackets after ≈: the same amount, converted by molar mass. Activity calls are given as the source filed them. The rule behind the calls is not given here.
Key:
[1] = system: Mycobacterium tuberculosis; experiment: Antimicrobial activity against Mycobacterium tuberculosis H37Rv by alamar blue assay; format: functional
[2] = Inhibition of Mycobacterium tuberculosis GuaB2 expressed in Escherichia coli BL21(DE3) using [2-2H]-IMP or [2-1H]-IMP and NAD+ incubated for 2 hrs by 1H NMR method
[3] = system: Mycobacterium tuberculosis; experiment: Antimicrobial activity against Mycobacterium tuberculosis SRMV2.6 H37Rv by alamar blue assay; format: functional
Acinetobacter baumannii = experiment: Growth inhibition of Acinetobacter baumannii at 32 ug/ml; format: functional; conditions: read-out: GI
Staphylococcus aureus = experiment: Growth inhibition of methicillin-resistant Staphylococcus aureus at 32 ug/ml; format: functional; conditions: read-out: GI
Candida albicans = experiment: Growth inhibition of Candida albicans at 32 ug/ml; format: functional; conditions: read-out: GI
[4] = system: Mycobacterium tuberculosis; experiment: Inhibition of Mycobacterium tuberculosis GuaB2 at 50 uM
Klebsiella pneumoniae = experiment: Growth inhibition of Klebsiella pneumoniae at 32 ug/ml; format: functional; conditions: read-out: GI
Escherichia coli = experiment: Growth inhibition of Escherichia coli at 32 ug/ml; format: functional; conditions: read-out: GI
[5] = target: Inosine-5'-monophosphate dehydrogenase 2 (Homo sapiens) (UniProt P12268); experiment: Inhibition of human IMPDH2 at 10 uM
Pseudomonas aeruginosa = experiment: Growth inhibition of Pseudomonas aeruginosa at 32 ug/ml; format: functional; conditions: read-out: GI
Cryptococcus neoformans = experiment: Growth inhibition of Cryptococcus neoformans var. grubii at 32 ug/ml; format: functional; conditions: read-out: GI
[6] = Inhibition of Mycobacterium tuberculosis GuaB2
[7] = system: Mycobacterium tuberculosis; experiment: Antimicrobial activity against Mycobacterium tuberculosis H37Rv in presence of 0.08 to 5 ng/ml anhydrotetracycline-induced guaB2 gene silencing by alamar blue assay; format: functional, organism-based
[8] = Octanol/water partition coefficient , logP of the compound; format: physicochemical

Sequence of Inosine-5'-monophosphate dehydrogenase 2 (Homo sapiens) (P12268 2-514 limits assumed): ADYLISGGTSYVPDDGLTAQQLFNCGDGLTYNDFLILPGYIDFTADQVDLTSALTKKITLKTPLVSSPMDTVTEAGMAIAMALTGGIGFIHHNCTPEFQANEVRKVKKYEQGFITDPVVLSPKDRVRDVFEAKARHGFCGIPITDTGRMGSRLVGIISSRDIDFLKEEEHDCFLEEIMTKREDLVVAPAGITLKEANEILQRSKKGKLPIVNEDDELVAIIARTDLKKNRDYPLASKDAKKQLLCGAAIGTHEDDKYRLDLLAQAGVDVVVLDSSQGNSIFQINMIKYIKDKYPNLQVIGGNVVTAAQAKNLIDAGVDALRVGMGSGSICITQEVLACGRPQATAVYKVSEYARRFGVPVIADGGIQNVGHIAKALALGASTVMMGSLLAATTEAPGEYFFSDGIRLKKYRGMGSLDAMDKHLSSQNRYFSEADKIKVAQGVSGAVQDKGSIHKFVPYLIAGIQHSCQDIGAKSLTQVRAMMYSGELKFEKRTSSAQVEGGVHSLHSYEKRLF

Compound: COc1ccc(-c2ccc(NC(=O)CCC(=O)O)cc2)cn1
- MIC90 [1]: > 100 µM

Compound: O=C(Cn1c(-c2cscn2)nc2ccccc21)c1ccc(Br)cc1
- Ki [2]: 0.55 µM

Compound: Clc1cccc(Cn2nncc2COc2ccc3ccccc3c2)c1
- MIC90 [1]: > 100 µM

Compound: O=C(CNc1ccc(F)cc1)Nc1ccc2c(c1)COC2=O
- MIC90 [1]: > 100 µM

Compound: COc1c(C)c2c(c(O)c1C/C=C(\C)CCC(=O)N[C@@H](C)c1ccccc1)C(=O)OC2
- MIC90 [1]: > 100 µM

Compound: Fc1ccccc1NC(=S)Nc1ccc(-c2cccc(Cl)c2)cn1
- MIC90 [1]: > 100 µM

Compound: COc1cccc(NC(=O)Nn2c(C)nc3sccc3c2=O)c1
- MIC90 [1]: > 100 µM

Compound: O=C(Cn1c(-c2ccncc2)nc2cc(Br)cnc21)Nc1cccc2ccccc12
- MIC90 [1]: > 100 µM

Compound: O=C(O)COCC(=O)Nc1ccccc1C(=O)O
- MIC90 [1]: > 100 µM

Compound: Fc1ccc(Cn2nncc2COc2ccc3ccccc3c2)cc1
- MIC90 [1]: > 100 µM

Compound: CC(=O)c1ccc(OCC(=O)Nn2c(C)nc3sccc3c2=O)cc1
- MIC90 [1]: > 100 µM

Compound: Cc1nc2sccc2c(=O)n1NC(=S)Nc1ccccc1F
- MIC90 [1]: > 100 µM

Compound: COc1cccc(Cn2nncc2COc2ccc(-c3nnc(C)o3)cc2)c1
- MIC90 [1]: 50 µM (≈ 18.9 µg/mL)
- MIC90 [3]: 100 µM (≈ 37.7 µg/mL)
- inhibition of growth at 32 µg/mL (Acinetobacter baumannii): -15.3%
- inhibition of growth at 32 µg/mL (Staphylococcus aureus): 5.5%
- inhibition of growth at 32 µg/mL (Candida albicans): 3.07%
- inhibition [4]: 35%
- inhibition of growth at 32 µg/mL (Klebsiella pneumoniae): -4.35%
- inhibition of growth at 32 µg/mL (Escherichia coli): -7.43%
- inhibition [5]: 0.1%
- inhibition of growth at 32 µg/mL (Pseudomonas aeruginosa): 1.44%
- inhibition of growth at 32 µg/mL (Cryptococcus neoformans): -59.4%

Compound: O=C(COc1ccc2ccccc2c1)Nc1ccc2c(c1)COC2=O
- MIC90 [1]: > 100 µM

Compound: Fc1ccccc1NC(=S)Nc1ccc(-c2ccccc2Cl)cn1
- MIC90 [1]: > 100 µM

Compound: Cc1ccc(NC(=O)Nn2c(C)nc3sccc3c2=O)cc1Cl
- MIC90 [1]: > 100 µM

Compound: CCOC(=O)C1CCN(CC(=O)Nc2ccc3c(c2)COC3=O)CC1
- MIC90 [1]: > 100 µM

Compound: COc1ccccc1NC(=O)Nn1c(C)nc2sccc2c1=O
- MIC90 [1]: > 100 µM

Compound: COc1c(C)c2c(c(O)c1C/C=C(\C)CCC(=O)O)C(=O)OC2 [MYCOPHENOLIC ACID]
- MIC90 [1]: 50 µM (≈ 16 µg/mL)
- MIC90 [3]: 50 µM (≈ 16 µg/mL)
- inhibition of growth at 32 µg/mL (Acinetobacter baumannii): 19.4%
- inhibition of growth at 32 µg/mL (Staphylococcus aureus): 52.4%
- IC50 [6]: 27.2 µM
- inhibition of growth at 32 µg/mL (Candida albicans): 96.9%
- inhibition [4]: 83%
- Activity [7]: Active
- inhibition of growth at 32 µg/mL (Klebsiella pneumoniae): 3.78%
- inhibition of growth at 32 µg/mL (Escherichia coli): 2.37%
- inhibition [5]: 99.9%
- inhibition of growth at 32 µg/mL (Pseudomonas aeruginosa): 18.8%
- inhibition of growth at 32 µg/mL (Cryptococcus neoformans): 91.4%
- logP [8]: 2.68

Compound: Cc1nnc(-c2ccc(OCc3cnnn3Cc3ccc(-c4ccccc4)cc3)cc2)o1
- MIC90 [1]: 100 µM (≈ 42.3 µg/mL)
- MIC90 [3]: 100 µM (≈ 42.3 µg/mL)
- inhibition of growth at 32 µg/mL (Acinetobacter baumannii): -14.1%
- inhibition of growth at 32 µg/mL (Staphylococcus aureus): 14%
- inhibition of growth at 32 µg/mL (Candida albicans): -0.24%
- inhibition [4]: 72.6%
- inhibition of growth at 32 µg/mL (Klebsiella pneumoniae): 2.97%
- inhibition of growth at 32 µg/mL (Escherichia coli): -7.2%
- inhibition [5]: 0.1%
- inhibition of growth at 32 µg/mL (Pseudomonas aeruginosa): 7.93%
- inhibition of growth at 32 µg/mL (Cryptococcus neoformans): -70.2%
- logP [8]: > 4.5

Compound: Cc1nnc(-c2ccc(OCc3cnnn3Cc3ccc(Cl)cc3)cc2)o1
- MIC90 [1]: > 100 µM

Compound: CC(=O)C1CCN(CC(=O)Nn2c(C)nc3sccc3c2=O)CC1
- MIC90 [1]: > 100 µM

Compound: O=C(O)CCC(=O)NCC1(N2CCOCC2)CCCCCC1
- MIC90 [1]: > 100 µM

Compound: COC(=O)c1ccc(OCC(=O)Nc2ccc3c(c2)COC3=O)cc1
- MIC90 [1]: > 100 µM

Compound: O=C(O)CCCC(=O)Nc1cc(-c2ccco2)[nH]n1
- MIC90 [1]: > 100 µM

Compound: Cc1nnc(-c2ccc(OCc3cnnn3Cc3ccc(C#N)cc3)cc2)o1
- MIC90 [1]: > 100 µM

Compound: COc1cccc(NC(=O)Nn2c(C)nc3ccsc3c2=O)c1
- MIC90 [1]: > 100 µM

Compound: Cc1nc2sccc2c(=O)n1NC(=O)Nc1ccc([N+](=O)[O-])cc1
- MIC90 [1]: > 100 µM

Compound: O=C1OCc2cc(NC(=O)c3cccnc3Cl)ccc21
- MIC90 [1]: > 100 µM

Compound: N#Cc1ccc(Cn2nncc2COc2cccc3ccccc23)cc1
- MIC90 [1]: 100 µM (≈ 34 µg/mL)
- MIC90 [3]: > 100 µM
- IC50 [6]: 175 µM
- inhibition [4]: 43.5%
- inhibition [5]: 14.8%

Compound: O=C(O)CCCC(=O)Nc1ccc(N2CC3(COC3)C2)c(F)c1
- MIC90 [1]: > 100 µM

Compound: Cc1nc2sccc2c(=O)n1NC(=O)Nc1ccc(F)cc1
- MIC90 [1]: > 100 µM

Compound: O=C(COc1cc(Cl)ccc1Oc1ccc(Cl)cc1Cl)Nc1ccc2c(c1)COC2=O
- MIC90 [1]: > 100 µM

Compound: Fc1ccccc1Cn1nncc1COc1ccc2ccccc2c1
- MIC90 [1]: > 100 µM

Compound: COc1cc(-c2oc3ccccc3c(=O)c2OCC(=O)Nc2ccc3c(c2)COC3=O)cc(OC)c1OC
- MIC90 [1]: > 100 µM

Compound: COc1cc(C(=O)/C=C/c2cc(OC)c(OC)c(OC)c2)ccc1OCC(=O)Nc1ccc2c(c1)COC2=O
- MIC90 [1]: > 100 µM

Source: ChEMBL document CHEMBL4190383, “Hit discovery of Mycobacterium tuberculosis inosine 5'-monophosphate dehydrogenase, GuaB2, inhibitors” (Bioorg Med Chem Lett, 2018)
